# Test results reported in patent US4885239A, “Rapid differentiation of bacteria using polyether antibiotics” (Eastman Kodak Company, priority 1986, dated 1989).
# Assays:
# S. aureus (gram +) = assay: inhibition of the reduction of RIND IX (Example 7), S. aureus; assay type: cell-based, Staphylococcus aureus (ATCC 25923); conditions: Staphylococcus aureus, 0.5 h, about 1.7×10^-4 molar, calcium chloride, 635 nm, 30 minutes, 37° C., read-out: Corrected Percent Inhibition
# Description: (§1) gram-negative bacteria Enterobacter cloacae (ATCC 23355), Escherichia coli (ATCC 25922), Proteus vulgaris (ATCC 13315), Klebsiella pneumoniae (ATCC 13883) and Pseudomonas aeruginosa (ATCC 27853), and gram-positive bacteria Staphylococcus aureus (ATCC 25923) and Streptococcus pyogenes (ATCC 19615), and brain heart infusion (BHI) broth from Difco Laboratories (Detroit, Mich.),
# (§2) Bacterial suspensions were prepared by growing the cells in BHI to stationary phase overnight at 37° C. P. aeruginosa was grown with agitation. About 40 ml of overnight cultures were centrifuged, decanted and washed once with 0.05 molar potassium phosphate buffer or 0.05 molar N-2-hydroxyethylpiperazine-N'-2-ethanesulfonic acid (HEPES) buffer, pH 7.8, and resuspended in buffer.
# (§3) Optical density readings (OD) were made at 635 nm at 0 minutes and after incubation at 37° C. for 30 minutes for all solutions, and the change (ΔOD) was determined. […] The corrected percent inhibition was calculated by dividing the difference between ΔOD obtained from a Control test without antibiotic and the ΔOD of the test, by the ΔOD of the Control without antibiotic. All readings were corrected by subtracting readings of the appropriate background control.
# (§4) A dispersion of the RIND IX compound was prepared by dissolving the RIND compound in N,N-dimethylformamide (16 mg/ml of solvent acidified with 0.1% concentrated sulfuric acid). […]
# E. coli (gram -) = assay: inhibition of the reduction of RIND IX (Example 7), E. coli; assay type: cell-based, Escherichia coli (ATCC 25922); conditions: about 1.7×10^-4 molar, calcium chloride, 635 nm, 30 minutes, 37° C.
# Description: as §1, §2, §3, §4
# [1] = tested on: viable gram-positive and gram-negative bacteria; assay: differentiation of viable gram-positive and gram-negative bacteria (outcome in words); assay type: cell-based; conditions: RIND IX; Example 7
# Description: as §1, §2
# TERGITOL 7 anionic surfactant was used to differentiate viable bacteria according to the prior art method. Various concentrations of TERGITOL 7 surfactant were mixed with a 10% glucose solution (50 μl), 3-(4,5-dimethyl-2-thiazolyl)-2,5-diphenyl-2N-tetrazolium bromide (MTT) in methanol (25 μl at 5 mg/ml) or a RIND VII dispersion (1.5 ml) and phenazine methosulfate ETA (25 μl at 3 mg/ml methanol). The volume of each test solution was brought to 3 ml with potassium phosphate buffer. A cell suspension (100 μl at about 10^8 cells/ml) was then added. The solutions were incubated at 37° C. for 15 and 30 minutes in the presence of either E. coli, a gram (-) bacterium, or S. aureus, a gram (+) bacterium. The amount of dye formed was then determined visually and graded as follows: 0 indicates no dye formation, +/- indicates faint dye formation, 1+ indicates light dye formation, 2+ indicates moderate dye formation, 3+ indicates strong dye formation, and 4+ indicates very strong dye formation.
# Calimycin, a polyether antibiotic, was similarly used with RIND VII in the differentiation of bacteria. Assays were performed as described above, except that 25 μl of 1 molar calcium chloride solution was added to each test solution and the P. aeruginosa response was measured in the presence of 10% yeast extract as the carbon source instead of glucose. The final concentration of calimycin in each test was 10^-3 molar.
# The test solutions were prepared by adding the following, in order: 1.2 ml HEPES, 50 μl glucose solution, 1.5 ml RIND VII dispersion, 100 μl antibiotic solution, 100 μl cell suspension and 25 μl ETA solution. Cell control solutions contained all reagents except antibiotics. Background Controls consisted of both buffer and solution controls. The buffer control contained all reagents except antibiotics and cells. The solution control contained all reagents except cells.
# Optical density readings (OD) were made at 635 nm at 0 minutes and after incubation at 37° C. for 30 minutes for all solutions, and the change (ΔOD) was determined. Table V below lists the results expressed as corrected percent inhibition of the reduction of RIND VII. The corrected percent inhibition was calculated by dividing the difference between ΔOD obtained from a Control test without antibiotic and the ΔOD of the test, by the ΔOD of the Control without antibiotic. All readings were corrected by subtracting readings of the appropriate background control.
# Relative fluorescence was measured using a standard spectrophotometer modified to read at excitation of 540 nm and emission of 620 nm. The change (Δ) in relative fluorescence was determined after 30 minutes at 37° C. for several concentration levels of antibiotic.
# Optical density measurements were obtained at 540 nm using a standard spectrophotometer and the change in optical density (ΔOD) was determined after 30 minutes at 37° C. The resulting data are shown in Table VII below for several concentrations of antibiotic. It is clear from the data that the composition of this example was useful for differentiating bacteria. […]
smiles,measurement,setting,value
C[C@H](CCC(=O)O)C[C@H](C)C[C@H](C)C(=O)/C=C(\O)[C@H](C)C[C@H](C)C/C=C/[C@@H](C)[C@@H](O)[C@@H](C)[C@@H](O)C[C@@H]1CC[C@@](C)([C@H]2CC[C@@](C)([C@@H](C)O)O2)O1 [ionomycin],inhibition at 170 µM,S. aureus (gram +),59.7%
same,Corrected Percent Inhibition,E. coli (gram -),No Inhibition
same,differentiating gram-positive and gram-negative bacteria,[1],can be used to differentiate gram-positive and gram-negative bacteria
